# Data as given in patent publication US9273009B2, “Tetrahydronaphthalene derivatives” (Concert Pharmaceuticals Inc., priority 2010, dated 2016).
# Counter-ions that a name gives are not always drawn. Like-named read-outs stand apart in the source and are kept apart here.
# Legend:
# [1] = Metabolic stability in human liver microsomes (in vitro t1/2); assay type: in vitro ADME; details: for half-life: human, human liver microsomes
# Experimental: Human liver microsomes (20 mg/mL) were obtained from Xenotech, LLC (Lenexa, Kans.). β-nicotinamide adenine dinucleotide phosphate, reduced form (NADPH), magnesium chloride (MgCl2), and dimethyl sulfoxide (DMSO) were purchased from Sigma-Aldrich.
# 7.5 mM stock solutions of test compounds were prepared in DMSO. The 7.5 mM stock solutions were diluted to 12.5-50 μM in acetonitrile (ACN). The 20 mg/mL human liver microsomes were diluted to 0.625 mg/mL in 0.1 M potassium phosphate buffer, pH 7.4, containing 3 mM MgCl2. The diluted microsomes were added to wells of a 96-well deep-well polypropylene plate in triplicate. A 10 μL aliquot of the 12.5-50 μM test compound was added to the microsomes and the mixture was pre-warmed for 10 minutes. Reactions were initiated by addition of pre-warmed NADPH solution. The final reaction volume was 0.5 mL and contained 0.5 mg/mL human liver microsomes, 0.25-1.0 μM test compound, and 2 mM NADPH in 0.1 M potassium phosphate buffer, pH 7.4, and 3 mM MgCl2. The reaction mixtures were incubated at 37° C., and 50 μL aliquots were removed at 0, 5, 10, 20, and 30 minutes and added to shallow-well 96-well plates which contained 50 μL of ice-cold ACN with internal standard to stop the reactions. The plates were stored at 4° C. for 20 minutes after which 100 μL of water was added to the wells of the plate before centrifugation to pellet precipitated proteins. Supernatants were transferred to another 96-well plate and analyzed for amounts of parent remaining by LC-MS/MS using an Applied Bio-systems API 4000 mass spectrometer. The same procedure was followed for the non-deuterated counterpart of the compound of Formula B, Formula A, Formula I, Formula B-I, Formula C, or Formula E and the positive control, 7-ethoxycoumarin (1.0 μM). Testing was done in triplicate.
# The in vitro t1/2s for test compounds were calculated from the slopes of the linear regression of % parent remaining (ln) vs incubation time relationship. in vitro t1/2=0.693/k k=−[slope of linear regression of % parent remaining(ln) vs incubation time]
# [2] = relative to mibefradil; cited from earlier work
# [3] = intravenous, healthy male volunteers, cited from earlier work
# [4] = pH 7.4, Table 8b, 0.5 mg/mL HLM, 2 mM NADPH, 37° C., read-out: t1/2 Experiment 1
# [5] = pH 7.4, Table 8b, 0.5 mg/mL HLM, 2 mM NADPH, 37° C., read-out: t1/2 Experiment 2
# [6] = pH 7.4, Table 8b, average of Experiments 1 and 2, read-out: t1/2 Ave
# [7] = pH 7.4, Table 8a, 0.5 mg/mL HLM, 2 mM NADPH, 37° C., read-out: t1/2 Experiment 1
# [8] = pH 7.4, Table 8a, 0.5 mg/mL HLM, 2 mM NADPH, 37° C., read-out: t1/2 Experiment 2
# [9] = pH 7.4, Table 8a, average of Experiments 1 and 2, read-out: t1/2 Ave
Structure (SMILES),"half-life [1, 4]","half-life [1, 5]","half-life [1, 6]","half-life [1, 7]","half-life [1, 8]","half-life [1, 9]",further results
"[2H]C1([2H])c2cc(F)ccc2[C@H](C(C)C)[C@](CCN(C)CCCc2nc3ccccc3[nH]2)(OC(=O)COC)C1([2H])[2H] [Compound 500, (1S,2S)-2-(2-((3-(1H-Benzo[d]imidazol-2-yl)propyl)(methyl)amino)ethyl)-3,3,4,4-tetradeutero-6-fluoro-1-isopropyl-1,2,3,4-tetrahydronaphthalen-2-yl 2-methoxyacetate]",,,,4.61 min,4.98 min,4.79 min,"half life (t1/2) shorter than that of mibefradil ([1]; HLM, from Table 8a): approximately 44%"
CC(C)C1c2ccc(F)cc2CCC1(O)CCN(C)CCCc1nc2ccccc2[nH]1 (stereo not shown) [Ro 40-5966],,,,,,,pharmacologic effect of the metabolite as share of that of the parent [2]: approximately 10%
"[2H]C([2H])([2H])N(CC[C@]1(OC(=O)C2CC2)[C@@H](C(C)C)c2ccc(F)cc2C([2H])([2H])C1([2H])[2H])C([2H])([2H])C([2H])([2H])C([2H])([2H])c1nc2ccccc2[nH]1 [Compound 707a, (1S,2S)-2-(2-((3-(1H-Benzo[d]imidazol-2-yl)-1,1,2,2,3,3-hexadeuteropropyl)(trideuteromethyl)-amino)ethyl)-3,3,4,4-tetradeutero-6-fluoro-1-isopropyl-1,2,3,4-tetrahydronaphthalen-2-yl cyclopropanecarboxylate]",7.27 min,7.03 min,7.15 min,,,,
"[2H]C([2H])([2H])N(CC[C@]1(OC(=O)COC)[C@@H](C(C)C)c2ccc(F)cc2C([2H])([2H])C1([2H])[2H])C([2H])([2H])C([2H])([2H])C([2H])([2H])c1nc2ccccc2[nH]1 [Compound 703a, (1S,2S)-2-(2-((3-(1H-Benzo[d]imidazol-2-yl)-1,1,2,2,3,3-hexadeuteropropyl)(trideuteromethyl)-amino)ethyl)-3,3,4,4-tetradeutero-6-fluoro-1-isopropyl-1,2,3,4-tetrahydronaphthalen-2-yl 2-methoxyacetate]",,,,7.17 min,7.72 min,7.45 min,

# More lines, main results first:
"half-life [1, 4]","half-life [1, 5]","half-life [1, 6]","half-life [1, 7]","half-life [1, 8]","half-life [1, 9]",Structure (SMILES),further results
6.58 min,6.55 min,6.56 min,,,,"CC(C)[C@H]1c2ccc(F)cc2CC[C@@]1(CCN(C)CCCc1nc2ccccc2[nH]1)OC(=O)C1CC1 [NNC 55-0396, reference compound]",
6.16 min,6.6 min,6.38 min,,,,"[2H]C1([2H])c2cc(F)ccc2[C@H](C(C)C)[C@](CCN(C)CCCc2nc3ccccc3[nH]2)(OC(=O)C2CC2)C1([2H])[2H] [Compound 704a, (1S,2S)-2-(2-((3-(1H-Benzo[d]imidazol-2-yl)propyl)(methyl)amino)ethyl)-3,3,4,4-tetradeutero-6-fluoro-1-isopropyl-1,2,3,4-tetrahydronaphthalen-2-yl cyclopropanecarboxylate]",
,,,8.49 min,8.55 min,8.52 min,"COCC(=O)O[C@]1(CCN(C)CCCc2nc3ccccc3[nH]2)CCc2cc(F)ccc2[C@@H]1C(C)C [Mibefradil, (1S,2S)-2-(2-((3-(2-benzimidazolylpropyl)methylamino)ethyl)-6-fluoro-1,2,3,4-tetrahydro-1-isopropyl-2-naphthyl methoxyacetatedihydrochloride, reference compound]",bilirubin ([3]; in all cases): dose-dependent increase; plasma haptoglobin ([3]; in two cases): severe decrease
